Reference: PubChem BioAssay (NCI)
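Following 48 hours of exposure in 96-well plates, responses at five concentrations were used to interpolate endpoints linearly. GI50 is the concentration that inhibits growth by half. TGI: total growth inhibition.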

Assays:
Assay in all cases: growth of human tumour cells (NCI), 48 h
A498 renal = tested on: A498 renal
CAKI-1 renal = tested on: CAKI-1 renal
HL-60(TB) leukemia = tested on: HL-60(TB) leukemia
MOLT-4 leukemia = tested on: MOLT-4 leukemia
SF-268 CNS = tested on: SF-268 CNS
SK-MEL-28 melanoma = tested on: SK-MEL-28 melanoma
SK-OV-3 ovarian = tested on: SK-OV-3 ovarian
U251 CNS = tested on: U251 CNS
HS 578T breast = tested on: HS 578T breast
RXF 393 renal = tested on: RXF 393 renal

| Structure (SMILES) | TGI (A498 renal) [µM] | TGI (CAKI-1 renal) [µM] | TGI (HL-60(TB) leukemia) [µM] | TGI (MOLT-4 leukemia) [µM] | TGI (SF-268 CNS) [µM] | TGI (SK-MEL-28 melanoma) [µM] | TGI (SK-OV-3 ovarian) [µM] | TGI (U251 CNS) [µM] | TGI (HS 578T breast) [µM] | TGI (RXF 393 renal) [µM] | GI50 (A498 renal) [µM] | GI50 (CAKI-1 renal) [µM] | GI50 (HS 578T breast) [µM] | GI50 (MOLT-4 leukemia) [µM] | GI50 (RXF 393 renal) [µM] | GI50 (SF-268 CNS) [µM] | GI50 (SK-MEL-28 melanoma) [µM] | GI50 (SK-OV-3 ovarian) [µM] | GI50 (U251 CNS) [µM] | GI50 (HL-60(TB) leukemia) [µM] |
| --- | --- | --- | --- | --- | --- | --- | --- | --- | --- | --- | --- | --- | --- | --- | --- | --- | --- | --- | --- | --- |
| Cc1cc(N(CCC#N)CCC#N)ccc1/C=C1/N=C(c2ccccc2)N(N)C1=O | > 100 | > 100 | > 100 | > 100 | > 100 | > 100 | > 100 | > 100 |  |  |  |  |  |  |  |  |  |  |  |  |
| CC1(C)C2CCC13CS(=O)(=O)N1O[C@]13C(=O)O2 (stereo partly specified) | > 100 |  | > 100 | > 100 | > 100 | > 100 |  | > 100 |  |  |  |  |  |  |  |  |  |  |  |  |
| Cc1ccc(C2=Nc3ccccc3SC(c3cccc([N+](=O)[O-])c3)C2)cc1 (stereo unspecified) | > 100 | > 100 |  |  | > 100 | > 100 | > 100 | 16.9 | 94.7 | 72.2 |  |  |  |  |  |  |  |  |  |  |
| COc1cc2nc(NCCCCCNC(=O)c3ccco3)nc(N)c2cc1OC | > 100 | > 100 | 43.3 | 67.8 | > 100 | 36.2 | > 100 | 42.5 |  | 83.5 |  |  |  |  |  |  |  |  |  |  |
| CC1CN1c1c(C(=O)/C=C/c2ccccc2)c(-c2ccccc2)nn(C)c1=O (stereo unspecified) | 32.4 | 81.7 | 49.7 | 52.7 | 56.2 | 47.5 | > 100 | 31.6 |  | 41.4 |  |  |  |  |  |  |  |  |  |  |
| Nc1ccc(-c2nc3ccccc3[nH]2)c2ccccc12 | 15 | > 53.7 |  | > 100 | > 100 | > 62.1 | 57.5 | 30.6 | > 30 | 12.2 | 1.07 | 2.23 | 3.5 | 3.44 | 1.83 | 5.93 | 4.27 | 3.23 | 4.12 |  |
| CN1COc2c(n(C)c(=O)[nH]c2=O)C1 | > 100 | > 68.3 | > 80.3 | > 100 | > 100 | > 100 | > 100 | > 100 |  | 97.9 |  |  |  |  |  |  |  |  |  |  |
| CCOC1=C2N=C(Cc3ccccc3F)N=C2C(=O)c2ccccc21 |  | > 100 | > 100 | > 100 | > 100 | > 100 |  | > 100 |  | > 100 |  |  |  |  |  |  |  |  |  |  |
| CNS(=O)(=O)NNS(=O)(=O)c1ccc(Cl)cc1 | > 100 | > 100 | > 100 | > 100 | > 100 | > 100 | > 100 |  |  | > 100 |  |  |  |  |  |  |  |  |  |  |
| CN1CCN(Cc2ccc(NC(=O)c3[nH]ncc3Nc3ncnc4sc5c(c34)CCCC5)cc2)CC1 | 0.668 |  | 0.804 | 0.503 | 2 | 2.08 | 3.01 |  | 1.74 | 0.949 | 0.0865 |  | 0.151 | 0.108 | 0.229 | 0.438 | 0.512 | 0.198 |  | 0.269 |
| COc1ccc(C=O)c(NC(=O)C(C)C)c1 | > 100 |  |  | 74.7 | > 100 | > 100 | > 100 | > 100 |  | 64.5 |  |  |  |  |  |  |  |  |  |  |
| CCCCCCN(N)C(=O)CC#N | > 100 | > 100 |  | > 100 | > 100 | > 100 | > 100 | > 100 |  | 94.8 |  |  |  |  |  |  |  |  |  |  |
| Cc1ccc(NC(=O)c2ccccc2C(=O)O)cc1C | > 100 | > 100 |  | > 100 | > 100 | > 100 | > 100 | > 100 | > 100 | > 100 |  |  |  |  |  |  |  |  |  |  |
| N#Cc1ccc(N=Cc2c([O-])ccc3ccccc23)cc1.[C-]#[O+].[C-]#[O+].[Ir] | 37.5 | 6.26 | 5.18 | 19.3 | 29.2 | 22.1 | 39.1 | 25.7 |  |  | 22.5 | 2.92 |  | 4.16 |  | 14.8 | 10.4 | 21.1 | 13 | 1.5 |
| Cc1cccc(NC(=O)c2sc3nc4c(cc3c2N)CN(Cc2ccccc2)CC4)c1C | > 50 |  |  | > 50 | > 50 | > 50 | > 50 | > 50 | > 50 | 2.11 | 0.397 |  | 0.189 | 0.286 | 0.133 | 0.387 | 4.06 | 0.216 | 0.251 |  |
| CCOC(=O)C(=O)Nc1cc(Cl)ccc1Cl | > 100 | > 100 | > 100 | > 100 | > 100 | > 100 | > 100 | > 100 |  |  |  |  |  |  |  |  |  |  |  |  |
| COc1ccc2c(c1)OC1=C(C(=O)OC1)C2c1cc(OC)c2c(c1)OCO2 (stereo unspecified) | 0.0923 | > 100 |  | > 100 | > 100 | > 100 |  | > 100 | > 100 |  | 0.0205 | 0.108 | 0.0348 | 0.0737 |  | 0.0795 | 0.0342 | 0.0336 | 0.0429 | 0.0342 |
| O=C([CH-]C(=O)c1ccccc1)c1ccccc1.O=C([CH-]C(=O)c1ccccc1)c1ccccc1.[OH-].[OH-].[Ti+4] | > 100 | > 100 | > 100 | > 100 | > 100 |  | > 100 | > 100 |  | 25.9 | 40.5 | 85.3 |  | 54.7 | 6.85 | 92.5 |  | 75.6 | 18.1 | > 100 |
| O=C(NC1CCCC1=O)c1ccccc1 (stereo unspecified) | > 100 | > 100 | > 100 | > 100 | > 100 | > 100 | > 100 | > 100 |  | > 100 |  |  |  |  |  |  |  |  |  |  |
| C=C1CCC2[C@@H](CCC3[C@]2(C)CCC[C@]3(C)C(=O)OC)[C@@H]1CC=O (stereo partly specified) | > 100 | > 100 | 55.9 | 59.9 | > 100 | 91.8 | > 100 | > 100 |  |  | 87.8 | 35.8 |  | 23.6 |  |  |  | > 100 | 46 |  |
